# Columns and labels:
# Rattus norvegicus [1] = test: Ratio of urinary excretion value (Na+ concentration) in treated rats to that in control rats, at a peroral dose of 25 mg/Kg; format: functional, Urine
# Rattus norvegicus [2] = test: Percent inhibition of Urea nitrogen by the compound given as ratio of UN value in treated to vehicle treated ones after intraperitoneal administration of 10 mg/kg of compound to rats(vehicle 114+/-8.7); format: functional; conditions: ip
# Rattus norvegicus [3] = test: Effect on urinary excretion potassium and sodium after oral administration of 25 mg/kg to rats(potassium and sodium excretion in control rat is 0.209+/-0.007); format: functional, Urine
# Rattus norvegicus [4] = test: Percent inhibition of serum creatinine by the compound given as ratio of Cr value in treated to vehicle treated ones after intraperitoneal administration of 10 mg/kg of compound to rats(vehicle 3.38+/-0.29); format: functional; conditions: ip
# Rattus norvegicus [5] = test: Ratio of sodium ion/potassium ion concentration in treated rats to that in control rats, at a peroral dose of 25 mg/Kg; format: functional
# Rattus norvegicus [6] = test: Oral diuretic activity was measured after oral administration of 25 mg/kg to rats(control volume is 1.02+/-0.02); format: functional, Urine
# Rattus norvegicus [7] = test: Ratio of urinary excretion value (urinary volume) in treated rats to that in control rats, at a peroral dose of 25 mg/Kg; format: functional, Urine
# Rattus norvegicus [8] = test: Urea nitrogen concentration measured after intraperitoneal administration of 10 mg/kg of compound to rats(vehicle 114+/-8.7); format: functional
# Rattus norvegicus [9] = test: Serum creatinine concentration measured after intraperitoneal administration of 10 mg/kg of compound to rats(vehicle 3.38+/-0.29); format: functional
# Adenosine A2 receptor [10] = target: T1, Adenosine A2 receptor (Rattus norvegicus, UniProt P29276+P30543)
# Description: Binding affinity towards adenosine A2 receptor in rat striatal membranes using N-[3H]-ethyladenosin-5''-uronamide as radioligand
# Adenosine receptor A1 = target: T2, Adenosine receptor A1 (Cavia porcellus, UniProt P47745)
# T2 sequence (P47745 whole entry): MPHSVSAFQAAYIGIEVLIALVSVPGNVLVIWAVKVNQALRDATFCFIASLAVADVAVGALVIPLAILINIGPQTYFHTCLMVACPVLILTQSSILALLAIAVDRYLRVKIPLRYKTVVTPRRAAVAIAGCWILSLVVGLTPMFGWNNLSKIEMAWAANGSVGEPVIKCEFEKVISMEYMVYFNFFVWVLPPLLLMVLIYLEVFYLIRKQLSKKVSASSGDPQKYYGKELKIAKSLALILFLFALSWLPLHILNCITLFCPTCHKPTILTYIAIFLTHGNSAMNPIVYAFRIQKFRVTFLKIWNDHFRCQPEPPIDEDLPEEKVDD
# Description: Binding affinity against adenosine A1 receptor in guinea pig forebrain membranes using N6-[3H]cyclohexyladenosine as radioligand
# Adenosine A2 receptor [11] = target: T1, Adenosine A2 receptor; remark: listed apart in the source
# Rattus norvegicus [12] = test: Percent inhibition of serum creatinine by the compound given as ratio of Cr value in treated to vehicle treated ones after intraperitoneal administration of 10 mg/kg of compound to rats(vehicle 5.53+/-0.34); format: functional; conditions: ip
# Rattus norvegicus [13] = test: Ratio of urinary excretion value (Na+ concentration) in treated rats to that in control rats, at a peroral dose of 6.25 mg/Kg; format: functional, Urine
# Rattus norvegicus [14] = test: Urea nitrogen concentration measured after intraperitoneal administration of 1 mg/kg of compound to rats(vehicle 195.8+/-14.4); format: functional
# Rattus norvegicus [15] = test: Effect on urinary excretion potassium and sodium after oral administration of 25 mg/kg to rats(potassium and sodium excretion in control rat is 0.265+/-0.099); format: functional, Urine
# Rattus norvegicus [16] = test: Ratio of urinary excretion value (urinary volume) in treated rats to that in control rats, at a peroral dose of 6.25 mg/Kg; format: functional, Urine
# Rattus norvegicus [17] = test: Oral diuretic activity was measured after oral administration of 25 mg/kg to rats(control volume is 1.64+/-0.7); format: functional, Urine
# Rattus norvegicus [18] = test: Percent inhibition of Urea nitrogen by the compound given as ratio of UN value in treated to vehicle treated ones after intraperitoneal administration of 1 mg/kg of compound to rats(vehicle 195.8+/-14.4); format: functional; conditions: Rattus norvegicus, ip
# Rattus norvegicus [19] = organism: Rattus norvegicus; test: animal or person; conditions: ip, read-out: Inhibition, dose 1 mg/kg, route intraperitoneal
# Rattus norvegicus [20] = test: Percent inhibition of Urea nitrogen by the compound given as ratio of UN value in treated to vehicle treated ones after intraperitoneal administration of 10 mg/kg of compound to rats(vehicle 177.4+/-5.3); format: functional; conditions: ip
# Rattus norvegicus [21] = test: Serum creatinine concentration measured after intraperitoneal administration of 10 mg/kg of compound to rats(vehicle 5.53+/-0.34); format: functional
# Rattus norvegicus [22] = test: Urea nitrogen concentration measured after intraperitoneal administration of 10 mg/kg of compound to rats(vehicle 177.4+/-5.3); format: functional
# Rattus norvegicus [23] = test: Serum creatinine concentration measured after intraperitoneal administration of 1 mg/kg of compound to rats(vehicle 5.07+/-0.33); format: functional
smiles,measurement,setting,value
Nc1nc2ccc(Cl)cc2n2c(-c3ccccc3)nnc12,T/C,Rattus norvegicus [1],0.89
same,inhibition in vivo at 10 mg/kg,Rattus norvegicus [2],-21%
same,Na,Rattus norvegicus [3],0.186 m equiv 6hr-1 100g-1
same,inhibition in vivo at 10 mg/kg,Rattus norvegicus [4],-36%
same,Na+/K+,Rattus norvegicus [5],1.05
same,Urine volume,Rattus norvegicus [6],0.87 ml 6hr-1 100g-1
same,T/C,Rattus norvegicus [7],0.85
same,UN,Rattus norvegicus [8],137.8 mg/dL
same,Cr,Rattus norvegicus [9],4.58 mg/dL
same,Ki,Adenosine A2 receptor [10],0.021 µM
same,Ki,Adenosine receptor A1,6.9 µM
same,Ki,Adenosine A2 receptor [11],0.0051 µM
CCCn1c(=O)[nH]c(=O)c2[nH]c(C34CC5CC(CC3C5)C4)nc21,T/C,Rattus norvegicus [1],1.51
same,inhibition in vivo at 10 mg/kg,Rattus norvegicus [12],49%
same,T/C,Rattus norvegicus [13],1.49
same,UN,Rattus norvegicus [14],164.9 mg/dL
same,Na+/K+,Rattus norvegicus [5],1.29
same,Na,Rattus norvegicus [15],0.4 m equiv 6hr-1 100g-1
same,T/C,Rattus norvegicus [16],1.26
same,Urine volume,Rattus norvegicus [17],2.34 ml 6hr-1 100g-1
same,inhibition in vivo at 1 mg/kg,Rattus norvegicus [18],16%
same,T/C,Rattus norvegicus [7],1.43
same,inhibition in vivo at 1 mg/kg,Rattus norvegicus [19],15%
same,inhibition in vivo at 10 mg/kg,Rattus norvegicus [20],39%
same,Cr,Rattus norvegicus [21],2.83 mg/dL
same,UN,Rattus norvegicus [22],107.4 mg/dL
same,Cr,Rattus norvegicus [23],4.33 mg/dL
same,Ki,Adenosine A2 receptor [11],> 100 µM

# Source: ChEMBL document CHEMBL1125524, “Adenosine A1 antagonists. 2. Structure-activity relationships on diuretic activities and protective effects against acute renal failure” (J Med Chem, 1992)
